Values after ≈ are worked out from the molar mass of the structure shown.
What was measured:
Adenosine receptor A1 [1] = target: T1, Adenosine receptor A1 (Rattus norvegicus, UniProt P25099); assay: Displacement of [3H]CCPA from A1 receptor in rat brain cortex membranes by liquid scintillation counting method; type: cell membranes
T1 sequence (P25099 whole entry): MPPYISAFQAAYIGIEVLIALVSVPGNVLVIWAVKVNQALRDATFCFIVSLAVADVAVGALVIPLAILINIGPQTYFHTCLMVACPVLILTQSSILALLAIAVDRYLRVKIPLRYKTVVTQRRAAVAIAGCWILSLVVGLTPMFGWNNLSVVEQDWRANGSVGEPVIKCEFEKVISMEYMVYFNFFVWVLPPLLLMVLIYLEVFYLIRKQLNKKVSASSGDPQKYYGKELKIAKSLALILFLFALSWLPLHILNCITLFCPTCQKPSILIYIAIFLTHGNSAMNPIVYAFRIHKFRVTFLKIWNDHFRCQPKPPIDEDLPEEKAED

[2] = target: T2, Adenosine receptor A1 (Rattus norvegicus) (UniProt P25099); assay: Displacement of [3H]CCPA from A1 receptor in rat brain cortex membranes at 1.5 uM by liquid scintillation counting method; type: cell membranes
T2 sequence (whole entry): T1 sequence (P25099 whole entry)

Adenosine receptor A2a = Adenosine receptor A2a (Rattus norvegicus, UniProt P30543); assay: Displacement of [3H]MSX from A2A receptor in rat brain striatum membranes measured after 30 mins by liquid scintillation counting method; type: cell membranes
Adenosine receptor A2a, sequence (P30543 whole entry): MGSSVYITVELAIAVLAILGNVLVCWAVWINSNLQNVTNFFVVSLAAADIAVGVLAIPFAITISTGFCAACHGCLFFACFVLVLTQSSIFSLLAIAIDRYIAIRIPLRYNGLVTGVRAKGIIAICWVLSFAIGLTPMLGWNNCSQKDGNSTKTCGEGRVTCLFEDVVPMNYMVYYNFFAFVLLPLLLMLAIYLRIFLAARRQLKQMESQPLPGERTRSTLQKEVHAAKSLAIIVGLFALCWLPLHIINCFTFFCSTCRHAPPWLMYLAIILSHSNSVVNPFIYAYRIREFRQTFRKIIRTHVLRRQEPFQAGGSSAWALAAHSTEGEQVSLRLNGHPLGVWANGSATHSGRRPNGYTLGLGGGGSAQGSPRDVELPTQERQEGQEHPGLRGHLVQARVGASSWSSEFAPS

[3] = target: Adenosine receptor A2a (Rattus norvegicus) (UniProt P30543); assay: Displacement of [3H]MSX from A2A receptor in rat brain striatum membranes at 1 uM measured after 30 mins by liquid scintillation counting method relative to control; type: cell membranes
Adenosine receptor A2a (Rattus norvegicus), sequence (P30543 whole entry): as above

[4] = target: T3, Amine oxidase [flavin-containing] A (Homo sapiens, UniProt P21397); assay: Inhibition of recombinant human MAO-A expressed in baculovirus infected BTI insect cells preincubated for 30 mins followed by addition of p-tyramine as substrate measured over 45 mins by Amplex Red MAO assay
T3 sequence (P21397 whole entry): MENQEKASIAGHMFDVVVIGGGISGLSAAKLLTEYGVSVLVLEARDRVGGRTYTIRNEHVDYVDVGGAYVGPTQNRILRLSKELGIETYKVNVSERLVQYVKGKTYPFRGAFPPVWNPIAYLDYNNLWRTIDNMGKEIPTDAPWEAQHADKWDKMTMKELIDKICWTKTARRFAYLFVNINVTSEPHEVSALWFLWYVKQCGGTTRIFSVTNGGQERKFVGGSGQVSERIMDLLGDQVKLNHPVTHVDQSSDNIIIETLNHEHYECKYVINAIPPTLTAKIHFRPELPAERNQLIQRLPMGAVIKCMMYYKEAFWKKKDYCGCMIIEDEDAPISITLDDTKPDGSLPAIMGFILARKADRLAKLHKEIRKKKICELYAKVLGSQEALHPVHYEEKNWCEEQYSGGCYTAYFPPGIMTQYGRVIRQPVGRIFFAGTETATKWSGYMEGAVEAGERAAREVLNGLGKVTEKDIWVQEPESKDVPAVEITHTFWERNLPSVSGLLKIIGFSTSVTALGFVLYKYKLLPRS

[5] = target: T3, Amine oxidase [flavin-containing] A; assay: Inhibition of recombinant human MAO-A expressed in baculovirus infected BTI insect cells at 10 uM preincubated for 30 mins followed by addition of p-tyramine as substrate measured over 45 mins by Amplex Red MAO assay relative to control; conditions: 0.75 h
[6] = target: T4, Amine oxidase [flavin-containing] B (Homo sapiens, UniProt P27338); assay: Inhibition of recombinant human MAO-B expressed in baculovirus infected BTI insect cells preincubated for 30 mins followed by addition of p-tyramine as substrate measured over 45 mins by Amplex Red MAO assay
T4 sequence (P27338 whole entry): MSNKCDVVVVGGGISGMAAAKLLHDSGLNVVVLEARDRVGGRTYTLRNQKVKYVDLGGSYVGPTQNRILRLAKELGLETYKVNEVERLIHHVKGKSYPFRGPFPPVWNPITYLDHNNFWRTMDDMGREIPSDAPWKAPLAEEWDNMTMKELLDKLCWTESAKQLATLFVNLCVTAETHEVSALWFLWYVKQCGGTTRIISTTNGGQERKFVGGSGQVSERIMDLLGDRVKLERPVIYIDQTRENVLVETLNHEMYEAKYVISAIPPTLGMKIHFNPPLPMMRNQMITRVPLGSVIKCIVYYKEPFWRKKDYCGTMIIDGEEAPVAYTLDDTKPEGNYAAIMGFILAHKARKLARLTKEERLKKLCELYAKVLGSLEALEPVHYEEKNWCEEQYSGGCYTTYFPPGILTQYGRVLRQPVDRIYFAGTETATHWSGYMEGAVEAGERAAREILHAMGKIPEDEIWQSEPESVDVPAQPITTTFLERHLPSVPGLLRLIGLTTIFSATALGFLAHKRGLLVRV

[7] = target: T4, Amine oxidase [flavin-containing] B; assay: Inhibition of recombinant human MAO-B expressed in baculovirus infected BTI insect cells at 10 uM preincubated for 30 mins followed by addition of p-tyramine as substrate measured over 45 mins by Amplex Red MAO assay relative to control; conditions: 0.75 h
Adenosine receptor A2b = target: T5, Adenosine receptor A2b (Homo sapiens, UniProt P29275); assay: Displacement of [3H]PSB-603 from human A2B receptor expressed in CHO cell membrane; type: cell membranes
T5 sequence (P29275 whole entry): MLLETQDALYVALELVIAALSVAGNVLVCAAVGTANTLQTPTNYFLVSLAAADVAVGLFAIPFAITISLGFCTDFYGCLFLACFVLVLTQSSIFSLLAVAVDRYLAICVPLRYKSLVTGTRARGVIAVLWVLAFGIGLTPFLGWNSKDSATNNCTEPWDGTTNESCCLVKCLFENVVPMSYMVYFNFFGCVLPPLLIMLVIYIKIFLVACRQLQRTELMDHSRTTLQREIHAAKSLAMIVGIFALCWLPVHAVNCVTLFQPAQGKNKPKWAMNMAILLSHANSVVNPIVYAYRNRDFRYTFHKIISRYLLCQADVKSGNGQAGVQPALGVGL

[8] = target: T6, Adenosine receptor A2b (Homo sapiens) (UniProt P29275); assay: Displacement of [3H]PSB-603 from human A2B receptor expressed in CHO cell membrane at 1 uM relative to control; type: cell membranes
T6 sequence (whole entry): T5 sequence (P29275 whole entry)

Adenosine receptor A3 = target: T7, Adenosine receptor A3 (Homo sapiens, UniProt P0DMS8); assay: Displacement of [3H]PSB-11 from human A3 receptor expressed in CHO cell membrane by liquid scintillation counting method relative to control; type: cell membranes
T7 sequence (P0DMS8 whole entry): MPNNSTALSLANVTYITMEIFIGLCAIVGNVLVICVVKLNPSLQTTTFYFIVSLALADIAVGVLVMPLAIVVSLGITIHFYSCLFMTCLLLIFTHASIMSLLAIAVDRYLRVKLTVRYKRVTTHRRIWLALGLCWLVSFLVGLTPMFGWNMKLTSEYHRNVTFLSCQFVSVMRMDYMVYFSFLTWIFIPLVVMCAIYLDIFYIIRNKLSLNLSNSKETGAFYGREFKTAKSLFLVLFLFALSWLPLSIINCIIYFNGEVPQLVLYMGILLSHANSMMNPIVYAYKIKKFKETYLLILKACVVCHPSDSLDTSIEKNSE

[9] = target: T8, Adenosine receptor A3 (Homo sapiens) (UniProt P0DMS8); assay: Displacement of [3H]PSB-11 from human A3 receptor expressed in CHO cell membrane at 10 uM by liquid scintillation counting method relative to control relative to control; type: cell membranes
T8 sequence (whole entry): T7 sequence (P0DMS8 whole entry)

[10] = Thermodynamic solubility of the compound at pH 1; type: physicochemical; conditions: buffer, read-out: Therm_solubility
[11] = Thermodynamic solubility of the compound at pH 4; type: physicochemical; conditions: buffer, read-out: Therm_solubility
[12] = Thermodynamic solubility of the compound at pH 7.4; type: physicochemical; conditions: buffer, read-out: Therm_solubility
[13] = target: T6, Adenosine receptor A2b (Homo sapiens); assay: Displacement of [3H]PSB-603 from human A2B receptor expressed in CHO cell membrane at 0.3 uM relative to control; type: cell membranes
Adenosine receptor A1 [14] = target: T9, Adenosine receptor A1 (Homo sapiens, UniProt P30542); assay: Displacement of [3H]CCPA from human A1 receptor expressed in CHO cell membrane by liquid scintillation counting method; type: cell membranes
T9 sequence (P30542 whole entry): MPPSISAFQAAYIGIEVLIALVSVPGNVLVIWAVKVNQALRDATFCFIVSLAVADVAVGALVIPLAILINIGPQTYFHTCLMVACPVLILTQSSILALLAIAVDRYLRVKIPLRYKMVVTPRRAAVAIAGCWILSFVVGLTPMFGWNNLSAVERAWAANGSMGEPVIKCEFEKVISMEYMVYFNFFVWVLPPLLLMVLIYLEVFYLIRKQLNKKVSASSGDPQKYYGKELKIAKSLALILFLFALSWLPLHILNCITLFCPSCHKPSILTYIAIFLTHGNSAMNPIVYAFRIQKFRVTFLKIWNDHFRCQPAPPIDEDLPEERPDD

Ki (Adenosine receptor A1 [1]) | Activity [2] | Ki (Adenosine receptor A2a) | Activity [3] | IC50 [4] | inhibition at 10 µM [5] | IC50 [6] | inhibition at 10 µM [7] | Ki (Adenosine receptor A2b) | Activity [8] | Ki (Adenosine receptor A3) | Activity [9] | solubility thermodynamic [10] | solubility thermodynamic [11] | solubility thermodynamic [12] | Activity [13] | Ki (Adenosine receptor A1 [14]) | SMILES
0.416 µM | – | 2.25 µM | – | > 10 µM | 15% | 2.45 µM | – | > 1 µM | 24% | 30.9 µM | – | – | – | – | – | 3.52 µM | Cn1c(=O)c2c(nc3n2CCN(CCc2ccc(Cl)cc2Cl)C3)n(C)c1=O
0.138 µM | – | 2.91 µM | – | – | – | 0.425 µM | – | > 1 µM | 26% | > 10 µM | 25% | – | – | – | – | 0.553 µM | Cn1c(=O)c2c(nc3n2CCN(CCc2ccc(Cl)cc2C(F)(F)F)C3)n(C)c1=O
> 1.5 µM | 24% | 5.63 µM | – | – | – | – | 65% | > 0.3 µM | – | > 10 µM | 40% | – | – | – | 2% | – | Cn1c(=O)c2c(nc3n2CCN(CCc2ccccc2F)C3)n(C)c1=O
> 1.5 µM | 6% | 1.5 µM | – | > 10 µM | 12% | > 10 µM | 35% | > 0.3 µM | – | > 10 µM | 16% | – | – | – | 8% | – | Cn1c(=O)c2c(nc3n2CCN(CCc2cccc(F)c2)C3)n(C)c1=O

Continued, molecule first:

SMILES | Ki (Adenosine receptor A1 [1]) | Activity [2] | Ki (Adenosine receptor A2a) | Activity [3] | IC50 [4] | inhibition at 10 µM [5] | IC50 [6] | inhibition at 10 µM [7] | Ki (Adenosine receptor A2b) | Activity [8] | Ki (Adenosine receptor A3) | Activity [9] | solubility thermodynamic [10] | solubility thermodynamic [11] | solubility thermodynamic [12] | Activity [13] | Ki (Adenosine receptor A1 [14])
Cn1c(=O)c2c(nc3n2CCN(CCn2cccc2)C3)n(C)c1=O | > 1.5 µM | 7% | > 1 µM | 8% | > 10 µM | 14% | > 10 µM | 19% | > 1 µM | 8% | > 10 µM | 37% | > 1500 µg/mL | 1500 µg/mL (≈ 4.57 mM) | 1200 µg/mL (≈ 3.65 mM) | – | –
Cn1c(=O)c2c(nc3n2CCN([C@H]2CCc4ccccc42)C3)n(C)c1=O | > 1.5 µM | 29% | 2.48 µM | – | – | – | > 10 µM | 22% | > 0.3 µM | – | > 10 µM | 33% | – | – | – | 11% | –
Cn1c(=O)c2c(nc3n2CCN(CCc2cccs2)C3)n(C)c1=O | > 1.5 µM | 15% | 1.59 µM | – | > 10 µM | 5% | > 10 µM | 21% | > 0.3 µM | – | > 10 µM | 24% | – | – | – | 17% | –
Cn1c(=O)c2c(nc3n2CCN(CCCc2ccccc2)C3)n(C)c1=O | > 1.5 µM | 12% | 1.84 µM | – | > 10 µM | 9% | > 10 µM | 14% | > 0.3 µM | – | > 10 µM | 20% | – | – | 80 µg/mL (≈ 0.226 mM) | 5% | –
